# Test results taken from patent US5032575A, “Method for enhancing healing of corneal endothelial wounds” (Eye Research Institute of Retina Foundation, Inc., priority 1989, dated 1991).
# Entries after “also recorded” stand apart in the source; their conditions may differ. Read-outs that look alike come from different tables or passages of the source.
# Experiments:
# [1] = test system: rabbit corneal endothelial cells; conditions: cited from earlier work; for cell shape in first passage cultures (rabbit): EGF and/or indomethacin
# [2] = test system: cultured corneal endothelial cells; experiment: Pharmacological regulation of morphology and mitosis in cultured rabbit corneal endothelium (Example 2); assay type: cell-based
# [3] = test system: cultured corneal endothelial cells; conditions: control cultures and cultures with EGF
# [4] = test system: Corneal endothelial cells; experiment: f-actin labelling with rhodamine labelled phallacidin in cultured corneal endothelial cells; conditions: 1 week culture; control shows circumferential bands of f-actin
# [5] = test system: rabbit corneal endothelial cells; experiment: Cell shape morphometry of confluent cultured rabbit corneal endothelial cells (Example 1); conditions: for cell shape at confluence / mean / distribution of the major axes (Amax): cultured seven days; for cell shape at confluence: control cells polygonal; for mean / distribution of the major axes (Amax): control mean 33 μ; for rank order of potency of cyclooxygenase inhibitors on cell shape: effect on cell shape in presence of EGF; for ratio Per/Amax: perimeter / major axis, 3.14 for a perfectly round cell; for potentiation of EGF-induced elongation: 10^-5, equimolar, in presence of EGF
# [6] = test system: human corneal endothelial cells; conditions: EGF and/or indomethacin; cited from earlier work
# cat corneal endothelium = conditions: 22° C.; cited from earlier work
# [7] = test system: intact rabbit corneal endothelium; experiment: Endothelial wound closure in excised rabbit corneas, specular microscopy with morphometric analysis (Example 3)
# [8] = test system: most cell culture systems; conditions: cited from earlier work
# [9] = test system: Corneal endothelial cells; experiment: Transmission electron microscopy of pharmacologically modulated endothelial phenotypes; conditions: cultured cells
# [10] = EGF 10 ng/ml, indomethacin 1 μM in M-K medium
compound,measurement,setting,value
"CCCCC[C@H](O)/C=C/[C@H]1[C@H](O)CC(=O)[C@@H]1C/C=C\CCCC(=O)O [PGE2, prostaglandin E2]",effect of exogenous PGE2 on elongation in cultures treated with EGF and indomethacin,[1]; added with EGF and indomethacin,blocks elongation
COc1ccc2c(c1)c(CC(=O)O)c(C)n2C(=O)c1ccc(Cl)cc1 [indomethacin],"cellular elongation, INDO added to TPA containing medium",[2]; with TPA,marked enhancement of cellular elongation
same,"final cell density, INDO added to TPA containing medium",[2]; with TPA,had no effect on final cell density
same,synthesis of PGE2,[3],totally inhibits
same,f-actin staining pattern,[4],almost completely lacking in individual actin fibers
same,cell shape at confluence,[5],elongated at confluence with a stellate shape
same,mean / distribution of the major axes (Amax),[5],increases
same,rank order of potency of cyclooxygenase inhibitors on cell shape,[5],indomethacin>suprofen>flurbiprofen
same,ratio Per/Amax,[5],2.6
same,cell shape in first passage cultures (human),[6],cause elongation
same,cell shape in first passage cultures (rabbit),[1],cause elongation
same,PGE2 synthesis by cultures of polygonal endothelial cells,[1],totally inhibited
CCCCCCCCCCCCCC(=O)O[C@@H]1[C@@H](C)[C@@]2(O)[C@@H](C=C(CO)C[C@]3(O)C(=O)C(C)=C[C@@H]23)[C@H]2C(C)(C)[C@]12OC(C)=O [TPA],"cell density / mitosis, agent alone",[2],increased cell density
same,"cell shape (elongation), agent alone",[2],caused elongation
same,synergy when TPA and EGF both present in the medium,[2],synergistic effects were not noted
epidermal growth factor [EGF],time for association of radiolabeled EGF to be complete,cat corneal endothelium,approximately 120 minutes
same,synthesis of PGE2,[3],unaffected
same,average percent change of the shape factor relative to control group,[7]; 150 minutes after wounding,two times greater
same,average displacement of cells near the wound boundary,"[7]; 150 minutes after wounding, control 7 μm",~16 μm
same,migration of cells near the wound boundary vs control group,[7]; [10],migrated significantly more than those in the control group; also recorded: significantly increased migration of cells near the wound boundary
same,wound closure time vs control group,[7]; [10],shortened the wound closure time
same,time after wounding at which wound area reached maximum,"[7]; EGF 10 ng/ml, indomethacin 1 μM in M-K medium, 37° C., control 20 minutes",10 min
same,time for wound area to decrease to 50% of the original size,"[7]; EGF 10 ng/ml, indomethacin 1 μM, control about 240 minutes",≤ 120 min
same,"relative average percent change of the shape factor, significance vs control (FIG. 3)","[7]; EGF+indomethacin at 50, 100, 150 minutes, EGF at 100 and 150 minutes",significantly different from the control group
same,time of peak of the shape change,"[7]; one cornea per group, control 200 minutes",150 min
same,wound closed to percent of the original size,[7]; within 250 minutes after wounding,80%
same,time after addition at which DNA synthesis reaches a maximum,[8],about 22 hours
same,time after addition at which increased DNA synthesis begins,[8],approximately 15 hours
same,cell density,[5]; compared with cells grown under control conditions,little or no effect on cell density
same,cell shape at confluence,[5],spindle-shaped at confluence
same,mean / distribution of the major axes (Amax),[5],significantly greater distribution of major axes
same,ratio Per/Amax,[5],decreases significantly
same,ultrastructure by transmission electron microscopy,[9],Junctional complexes were absent
same,cell shape in first passage cultures (human),[6],cause elongation
same,cell shape in first passage cultures (rabbit),[1],cause elongation
same,shape change in cultured rabbit tissue (April 1986 paper),[1],induce a shape change in the cells that is independent of mitosis
C=C[C@@]1(C)CC(=O)[C@]2(O)[C@@]3(C)[C@@H](O)CCC(C)(C)[C@@H]3[C@H](O)[C@H](OC(C)=O)[C@@]2(C)O1 [Forskolin],effect on EGF and INDO-induced elongation,[2]; added with EGF and INDO,prevented EGF and INDO-induced elongation
same,effect on cell density / mitosis in presence of EGF and INDO,[2]; added with EGF and INDO,inhibited endothelial mitosis
CCCCC/C=C\C/C=C\C/C=C\C/C=C\CCCC(=O)O [arachidonic acid],effect on cell shape,"[5]; added in the absence of EGF, in the presence or absence of indomethacin",had no effect on cell shape
CCCCC[C@H](O)/C=C/[C@@H]1[C@@H](C/C=C\CCCC(=O)O)[C@@H](O)C[C@H]1O [PGF2α],effect on elongation of Amax produced by EGF and indomethacin,[5]; increasing concentrations/doses added with EGF and indomethacin,has no effect on the elongation of Amax
C[C@@H]1C[C@H]2[C@@H]3CCC4=CC(=O)C=C[C@]4(C)[C@@]3(F)[C@@H](O)C[C@]2(C)[C@@]1(O)C(=O)CO [dexamethasone],potentiation of EGF-induced elongation,[5],has no effect
same,rank order of potency of cyclooxygenase inhibitors on cell shape,[5],inactivity
CC(C(=O)O)c1ccc(-c2ccccc2)c(F)c1 (stereo not shown) [flurbiprofen],rank order of potency of cyclooxygenase inhibitors on cell shape,[5],indomethacin>suprofen>flurbiprofen
Cholera toxin,"cell shape (elongation), agent alone",[2],had no effect on cell shape
same,effect on EGF and INDO-induced elongation,[2],antagonized EGF and INDO-induced elongation
same,effect on EGF-induced elongation,[2],EGF-induced elongation did not occur
same,effect on cell density / mitosis in presence of EGF and INDO,[2],without preventing increased cell density
same,effect on elongation in response to TPA,[2],did not prevent elongation in response to TPA
same,effect on mitogenic effect of EGF,[2],potentiated
same,effect on mitogenic response to TPA,[2],potentiate the mitogenic response
CC(C(=O)O)c1ccc(C(=O)c2cccs2)cc1 (stereo not shown) [suprofen],potentiation of EGF-induced elongation,[5],Potentiation of EGF-induced elongation also occurs
same,rank order of potency of cyclooxygenase inhibitors on cell shape,[5],indomethacin>suprofen>flurbiprofen
